Measurements: patent US8338481B2, “Alkoxyalkyl S-prenylthiosalicylates for treatment of cancer” (Ramot at Tel-Aviv University Ltd., priority 2009, dated 2012)
Like-named read-outs stand apart in the source and are kept apart here.

How the values were obtained:
[1] = test system: U87 cells (human glioblastoma cell line); details: U-87 cells; previously determined (Blum et al., Cancer Research 2005); read-out: IC50 of growth inhibition; cited from earlier work
[2] = test system: Panc-1 cells (human pancreatic carcinoma cell line); details: previously determined (Weisz et al., Oncogene 1999), read-out: IC50 of growth inhibition; cited from earlier work
[3] = test system: Panc-1 cells (human pancreatic carcinoma cell line); test: Inhibition of Panc-1 cell growth (cell counting); type: cell-based
Description: (§1) Human pancreatic cancer Panc-1 cells were obtained from American Tissue Culture Collection (ATCC) and grown in Dulbecco's modified Eagle medium (DMDM) containing 10% fetal calf serum, 2 mM L-glutamine, 100 U/mL penicillin, and 100 μg/mL streptomycin. The cells were incubated at 37° C. in a humidified atmosphere of 95% air and 5% CO2. Cells were plated in 24-well plates at a density of 5000 cells per well and grown for 24 hours. The medium was then replaced by a medium containing the desired concentration of methoxymethyl S-farnesylthiosalicylic acid and 0.1% DMSO, or by a medium containing 0.1% DMSO (control). Cells were maintained in culture for 5-7 days and then counted. Data are expressed as a percentage: (number cells in drug-treated culture/number cells in control culture×100). Experiments were performed twice in quadruplicates and means±SD are represented graphically in FIG. 1.
(§2) To establish efficacy of the newly synthesized compound FTS-MOME, Applicants prepared cell growth assays using human cancer cell lines. […]
First, to examine the effects of FTS-MOME on panc-1 cell growth (i.e., growth inhibition), the cells were incubated with and without FTS-MOME for five (5) days and the live cells were counted as a percentage of control over concentration of FTS-MOME (μM). […]

[4] = test system: U87 cells (human glioblastoma cell line); test: Inhibition of U87 cell growth (cell counting); type: cell-based; details: U-87 cells
Description: as §1, with “glioblastoma U87” for “pancreatic cancer Panc-1”, “drug treated” for “drug-treated”, “control×100). Experiment was” for “control culture×100). Experiments were”, “2.” for “1.”
as §2
Next, to examine the effects of FTS-MOME on U-87 cell growth (i.e., growth inhibition), the cells were incubated with and without FTS-MOME for five (5) days and the live cells were counted as a percentage of control over concentration of FTS-MOME (μM). […]

[5] = concentration range of 6-100 μM, five days

IC50 ([3]; Homo sapiens, 120 h, incubated five days, live cells counted as percentage of control, read-out: IC50 (concentration causing 50% inhibition of cell growth))	IC50 ([4]; Homo sapiens, U-87 MG, 120 h, incubated five days, live cells counted as percentage of control, read-out: IC50 (concentration causing 50% inhibition of cell growth))	SMILES	IC50 [1]	IC50 [2]	live cancer cell number [3, 5]	live cancer cell number [4, 5]
		CC(C)=CCC/C(C)=C/CC/C(C)=C/CSc1ccccc1C(=O)O [FTS, S-trans, trans-farnesylthiosalicylic acid]	50 µM	35 µM		
15 µM	15 µM	COCOC(=O)c1ccccc1SC/C=C(\C)CC/C=C(\C)CCC=C(C)C [FTS-MOME, methoxymethyl S-farnesylthiosalicylate]			dose-dependent decrease	dose-dependent decrease
